Each structure is given as a SMILES string. Converted amounts (≈) assume the structure as drawn.

In the assay the test system is Staphylococcus aureus. Put plainly: Antibacterial activity against methicillin-resistant Staphylococcus aureus. It is filed as functional.
Consider `CC(C)=CCc1c(O)cc2oc3c(O)ccc(CCC(C)(C)O)c3c(=O)c2c1O` [NIGROLINEAXANTHONE N], for which the MIC (commonly the lowest concentration that inhibits growth of the organism) turned out to be 4 µg/mL (≈ 10 µM).
In the case of `CC1(C)C=Cc2c(cc(O)c3c(=O)c4cc(O)ccc4oc23)O1` [NIGROLINEAXANTHONE F], the minimal inhibitory concentration (MIC) worked out at 2 µg/mL (≈ 6.45 µM).
As for `CC(C)=CCc1c(O)cc2oc3c(O)c4c(cc3c(=O)c2c1O)C=CC(C)(C)O4` [LASTIXANTHONE D], the figure is 2 µg/mL (≈ 5.07 µM).

(Values after ChEMBL document CHEMBL1141774, “Benzopyran, biphenyl, and tetraoxygenated xanthone derivatives from the twigs of Garcinia nigrolineata” (2005).)
